According to ChEMBL document CHEMBL1201862, “PubChem BioAssay data set” (2004):
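How tested: cells in 96-well plates exposed to compound for 48 hours at five concentrations. GI50 is the concentration that inhibits growth by half.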 Active and inactive are the calls of the source. Rule as the data show it: active = GI50 up to about 1.1 µM and inactive = higher.

Columns and labels:
Experiment in all cases: inhibition of tumour cell growth, NCI panel, 48 h
SF-539 = system: SF-539
RXF 393 = system: RXF 393
A549 = system: A549
SK-MEL-28 = system: SK-MEL-28
786-0 = system: 786-0
MDA-MB-435 = system: MDA-MB-435
UO-31 = system: UO-31
IGROV-1 = system: IGROV-1
SF-268 = system: SF-268
SN12C = system: SN12C
HOP-62 = system: HOP-62
U-251 = system: U-251
MDA-MB-231 = system: MDA-MB-231
LOX IMVI = system: LOX IMVI
SK-OV-3 = system: SK-OV-3
SW-620 = system: SW-620
RPMI-8226 = system: RPMI-8226
NCI-H522 = system: NCI-H522
BT-549 = system: BT-549

Measured: GI50

COc1ccc(CCN2CCOCC2)cc1
inactive: SF-539 > 100 µM | RXF 393 > 100 µM | A549 > 100 µM | SK-MEL-28 > 100 µM | 786-0 > 100 µM | MDA-MB-435 > 100 µM | UO-31 > 100 µM | IGROV-1 > 100 µM | SF-268 > 100 µM | SN12C > 100 µM | HOP-62 > 100 µM | U-251 > 100 µM | MDA-MB-231 > 100 µM | LOX IMVI > 100 µM | SK-OV-3 > 100 µM | SW-620 > 100 µM | RPMI-8226 > 100 µM | NCI-H522 > 100 µM

CC(C)OCC(O)COc1cc(=O)oc2ccccc12 (stereo not drawn)
inactive: A549 > 100 µM | SK-MEL-28 > 100 µM | 786-0 > 100 µM | MDA-MB-435 > 100 µM | UO-31 > 100 µM | IGROV-1 > 100 µM | SF-268 > 100 µM | SN12C > 100 µM | HOP-62 > 100 µM | U-251 > 100 µM | MDA-MB-231 > 100 µM | LOX IMVI > 100 µM | SK-OV-3 > 100 µM | SW-620 > 100 µM | RPMI-8226 > 100 µM | NCI-H522 > 100 µM

O=C(Nc1ccc(C(F)(F)F)cc1)NC(F)(F)F
inactive: SF-539 > 100 µM | RXF 393 > 100 µM | A549 > 100 µM | SK-MEL-28 > 100 µM | 786-0 > 100 µM | MDA-MB-435 > 100 µM | UO-31 > 100 µM | IGROV-1 > 100 µM | SF-268 > 100 µM | SN12C > 100 µM | U-251 > 100 µM | LOX IMVI > 100 µM | SK-OV-3 > 100 µM | BT-549 > 100 µM | SW-620 > 100 µM | RPMI-8226 > 100 µM

COc1cc2nc(-c3cccs3)nc(N3C(c4cc(OC)c(OC)c(OC)c4)=NNC(=O)c4ccccc43)c2cc1OC
inactive: SF-539 21.8 µM | A549 31.1 µM | SK-MEL-28 21.9 µM | 786-0 35.6 µM | MDA-MB-435 13.9 µM | UO-31 27.4 µM | IGROV-1 33.9 µM | SF-268 12 µM | SN12C 21.2 µM | HOP-62 66.8 µM | U-251 15.8 µM | MDA-MB-231 16.7 µM | LOX IMVI 15.8 µM | SK-OV-3 71.1 µM | BT-549 18.9 µM | NCI-H522 38 µM

Cn1nc(S(N)(=O)=O)s/c1=N/S(=O)(=O)c1ccc(N)cc1
inactive: SF-539 > 100 µM | RXF 393 > 100 µM | A549 > 100 µM | SK-MEL-28 > 100 µM | 786-0 > 100 µM | UO-31 > 100 µM | SF-268 > 100 µM | HOP-62 > 100 µM | U-251 > 100 µM | MDA-MB-231 > 100 µM | SK-OV-3 > 100 µM | BT-549 > 100 µM | SW-620 > 100 µM | RPMI-8226 > 100 µM

COc1cc(COC(=O)N[C@H](C(=O)O)C(C)(C)C)c([N+](=O)[O-])cc1OC
inactive: SF-539 > 100 µM | RXF 393 > 100 µM | A549 > 100 µM | SK-MEL-28 > 100 µM | 786-0 > 100 µM | MDA-MB-435 > 100 µM | UO-31 > 100 µM | IGROV-1 > 100 µM | SF-268 > 100 µM | SN12C > 100 µM | HOP-62 > 100 µM | U-251 > 100 µM | SK-OV-3 > 100 µM | BT-549 > 100 µM | SW-620 > 100 µM | RPMI-8226 > 100 µM

CCCCCCCCCCCCN(O)C(=O)c1ccccc1
inactive: SF-539 20.6 µM | RXF 393 35.2 µM | A549 24.4 µM | SK-MEL-28 36.8 µM | 786-0 16.9 µM | UO-31 24.3 µM | IGROV-1 37.8 µM | SF-268 15.1 µM | SN12C 17.1 µM | U-251 11.8 µM | LOX IMVI 20.5 µM | SK-OV-3 43.1 µM | SW-620 34 µM | RPMI-8226 15.1 µM | NCI-H522 25.6 µM

CN1CCN(C2=NCCO2)CC1
inactive: SF-539 > 100 µM | RXF 393 > 100 µM | A549 > 100 µM | SK-MEL-28 > 100 µM | 786-0 > 100 µM | MDA-MB-435 > 100 µM | UO-31 > 100 µM | IGROV-1 > 100 µM | SF-268 > 100 µM | SN12C > 100 µM | HOP-62 > 100 µM | U-251 > 100 µM | MDA-MB-231 > 100 µM | LOX IMVI > 100 µM | SK-OV-3 > 100 µM | SW-620 > 100 µM | RPMI-8226 > 100 µM | NCI-H522 > 100 µM

COc1c(C(C)C)cc2c3c1OC(=O)[C@@]31CCCC(C)(C)C1CC2 (stereo partly drawn)
inactive: SF-539 14 µM | RXF 393 17.3 µM | A549 13.6 µM | SK-MEL-28 27.4 µM | 786-0 46.7 µM | UO-31 11.7 µM | IGROV-1 23.1 µM | SF-268 28.7 µM | SN12C 51.9 µM | HOP-62 39.4 µM | U-251 20 µM | LOX IMVI 12.5 µM | SK-OV-3 23.8 µM | SW-620 26.4 µM | RPMI-8226 18.9 µM | NCI-H522 9.18 µM

COc1cc2c(c(OC)c1OC)C(=O)[C@@H](O)[C@H]2NC(N)=O
inactive: SF-539 > 100 µM | RXF 393 > 100 µM | A549 > 100 µM | SK-MEL-28 > 100 µM | 786-0 > 100 µM | MDA-MB-435 > 100 µM | UO-31 > 100 µM | IGROV-1 > 100 µM | SF-268 > 100 µM | SN12C > 100 µM | HOP-62 > 100 µM | U-251 > 100 µM | MDA-MB-231 > 100 µM | LOX IMVI > 100 µM | SW-620 > 100 µM | RPMI-8226 > 100 µM | NCI-H522 > 100 µM

CCc1cc(-c2nsc(=O)o2)c(S(=O)(=O)CC)s1
inactive: SF-539 > 100 µM | A549 > 100 µM | SK-MEL-28 49.3 µM | 786-0 > 100 µM | MDA-MB-435 55.3 µM | UO-31 > 100 µM | IGROV-1 34 µM | SF-268 86.9 µM | SN12C > 100 µM | HOP-62 > 100 µM | U-251 > 100 µM | LOX IMVI 56.6 µM | SK-OV-3 > 100 µM | SW-620 61 µM | RPMI-8226 49.4 µM | NCI-H522 22.2 µM

C=C[C@H]1CN2CCc3c([nH]c4cc(O)ccc34)[C@@H]2C[C@@H]1C[C@H]1c2[nH]c3ccccc3c2CCN1C
inactive: SF-539 1.82 µM | A549 5.53 µM | SK-MEL-28 1.78 µM | 786-0 1.84 µM | MDA-MB-435 2.01 µM | UO-31 2.09 µM | IGROV-1 1.85 µM | SF-268 6.04 µM | SN12C 4.79 µM | HOP-62 4.45 µM | U-251 1.77 µM | MDA-MB-231 6.05 µM | LOX IMVI 4.41 µM | SK-OV-3 13.8 µM | BT-549 13.8 µM | SW-620 1.92 µM | NCI-H522 2.99 µM

Cc1ccc(S(=O)(=O)N/N=C2\C=CC3(CC2)C(=O)N(I)c2ccccc23)cc1 (stereo not drawn)
inactive: SF-539 11 µM | RXF 393 15.1 µM | A549 > 100 µM | SK-MEL-28 > 100 µM | 786-0 > 100 µM | MDA-MB-435 > 100 µM | UO-31 > 100 µM | SF-268 90.6 µM | SN12C > 100 µM | HOP-62 > 100 µM | U-251 > 100 µM | MDA-MB-231 58.7 µM | LOX IMVI > 100 µM | SK-OV-3 > 100 µM | SW-620 > 100 µM | RPMI-8226 39.3 µM

CC1OC(O[C@H]2CC[C@]3(C)[C@H]4CC=C5[C@@H]6[C@@H](C)[C@H](C)CC[C@]6(C(=O)O)CC[C@@]5(C(=O)O)[C@]4(C)CC[C@H]3C2(C)C)C(O)C(O)C1O (stereo partly drawn)
inactive: SF-539 > 75 µM | RXF 393 > 75 µM | 786-0 > 75 µM | MDA-MB-435 > 75 µM | UO-31 > 75 µM | SF-268 > 75 µM | SN12C > 75 µM | HOP-62 > 75 µM | U-251 > 75 µM | MDA-MB-231 > 75 µM | LOX IMVI > 75 µM | SK-OV-3 > 75 µM | BT-549 > 75 µM | SW-620 > 75 µM | NCI-H522 > 75 µM

CCCCc1c(N(C)C)c(OC(C)=O)c(-c2cn(C)c3ccccc23)oc1=O
inactive: SF-539 22.3 µM | RXF 393 41 µM | A549 24.3 µM | SK-MEL-28 21.7 µM | 786-0 34.8 µM | MDA-MB-435 19.1 µM | UO-31 20.8 µM | SF-268 29.3 µM | SN12C 24.5 µM | HOP-62 19.8 µM | U-251 22 µM | SK-OV-3 32.4 µM | BT-549 28.3 µM | SW-620 23.6 µM | NCI-H522 20.9 µM

O=C(O)C1C2CCC(C2)C1c1ccccc1 (stereo not drawn)
inactive: SF-539 > 100 µM | RXF 393 > 100 µM | A549 > 100 µM | SK-MEL-28 > 100 µM | 786-0 > 100 µM | MDA-MB-435 > 100 µM | UO-31 > 100 µM | SF-268 > 100 µM | SN12C > 100 µM | HOP-62 > 100 µM | U-251 > 100 µM | MDA-MB-231 > 100 µM | LOX IMVI > 100 µM | SK-OV-3 > 100 µM | SW-620 > 100 µM | RPMI-8226 > 100 µM | NCI-H522 > 100 µM

COc1ccc(S(=O)(=O)NC(C)C(=O)O)cc1 (stereo not drawn)
inactive: SF-539 > 100 µM | RXF 393 > 100 µM | A549 > 100 µM | SK-MEL-28 > 100 µM | 786-0 > 100 µM | UO-31 > 100 µM | IGROV-1 > 100 µM | SF-268 > 100 µM | SN12C > 100 µM | U-251 > 100 µM | LOX IMVI > 100 µM | SK-OV-3 > 100 µM | SW-620 > 100 µM | RPMI-8226 > 100 µM | NCI-H522 > 100 µM
